What all share (assay type): cell-based
Series [1] concerns human NKT cell line. The series can be described thus: NKT cell activating action (IFN-γ production), co-culture of ligand-pulsed cells with human NKT cell line, ELISA. Particulars: ligand 100 ng/mL; for IFN-γ production from NKT cells induced by ligand-pulsed CD14 positive cells: 48 hr pulse, 1×10^5 pulsed cells with 1×10^5 human NKT cells, 48 hr. An excerpt:
For preparation of the cells obtained by culturing human CD14 positive cells (monocytes) immediately after separation using anti-CD14 antibody and human CD14 negative cells or human Elu-CD14 positive cells (monocytes) for 2 days with GM-CSF and NKT cell ligand RK-163 (respectively called “RK-163-pulsed human CD14 positive cell”, “RK-163-pulsed human CD14 negative cell”, “RK-163-pulsed human Elu-CD14 positive cell”), and the dendritic cells induced to differentiate in 2)-(2) by culturing for 6 days with addition of GM-CSF and IL-4 (called “RK-163-pulsed human dendritic cell”), RK-163 (bulk powder was dissolved in PBS added with DMSO and 0.5% Tween 20) was added to each cell to a final concentration of 100 ng/mL, and the cells were cultured at 37° C., 5% CO2 for 48 hr to produce “RK-163-pulsed cells”. After culturing, the recovered cells were centrifugation washed twice, and the number of viable cells after Trypan Blue staining was calculated by TC20™ Automated Cell Counter. RK-163-pulsed cells and human NKT cell line were respectively suspended in 10% fetal calf serum (Sigma, Lot No. 114K525)-added RMPI-1640 (Invitrogen) to 1×10^6/mL, each cell suspension was seeded at a cell concentration of 1×10^5/0.1 mL/well in a 96-well round-bottomed culture plate, and the cells were cultured at 37° C., 5% CO2 for 48 hr. After culturing, 200 μL of supernatant was recovered, and the produced and secreted IFN-γ was measured using a commercially available ELISA kit (BD Biosciences).
CD14 positive cells immediately after separation of anti-CD14 antibody-bound microbeads were separated, pulse-cultured in a medium containing NKT ligand RK-163 or other NKT cell ligand α-GalCer at 100 ng/mL and GM-CSF (53.3 ng/mL) for various times (0, 16, 48, 64 and 72 hr), and an influence on the activity of NKT cells to induce IFN-γ production was compared. As a result, IFN-γ production inducing activity was found from 16 hr after pulsing and high activity was found 48-72 hr later (FIG. 4, left). The recovery rate and survival rate at that time were highest at 48 hrs (FIG. 4, right). […]
Using RCAI-85 (100 ng/mL), RCAI-137 (100 ng/mL) instead of RK-163, CD14 positive cells (monocytes) isolated from human peripheral blood were pulsed for 48 hr to give each ligand-pulsed CD14 positive cell. 1×10^5 RK-163-pulsed CD14 positive cells or other ligand-pulsed CD14 positive cells were seeded in a 96 well round-bottomed plate, and cocultured with 1×10^5 human NKT cells for 48 hr in a 10% FBS-containing complete RPMI-1640 medium, and the concentration of IFN-γ in the culture medium was measured.

The test system of series [2] is NCI H460 cells (human lung cancer cell line). The series can be described thus: Cytotoxic activity of NKT cells stimulated with pulsed cells against NCI H460 cells. An excerpt: Human NKT cells were stimulated by culturing for 8-10 days with the “RK-163-pulsed human CD14 positive cell” or “RK-163-pulsed human dendritic cell” produced in the same manner as above in a mixed medium of AIM-V (50%) and RPMI-1640 (45%) and containing FCS (5%) (lot suitable for proliferation of iPS cells), sodium pyruvate, NEAA, 2-ME, IL-2 (100 U/mL) (Imunace). The mixing ratio of NKT cells and RK-163-pulsed CD14 positive cells or RK-163-pulsed dendritic cells was set to 1:1.5-5. The obtained human NKT cells were cultured for 4 hr together with NCI H460 cells (human lung cancer cell line) in an FBS (10%)-containing complete RPMI-1640 medium on a 96 well round-bottomed plate and the cytotoxic activity against NCI H460 cells was examined. The number of the target cells (NCI H460 cells) was set to 1×10^4 cells/well and the effector:target ratio was set to 3:1 and 10:1.

In series [3] the test system is human NKT cell line. The series can be described thus: NKT cell activating action (IFN-γ production) of RK-163-pulsed human CD14 positive cell lines. Particulars: U937 cells, RK-163 100 ng/mL, presence or absence of GM-CSF, 2-48 hr. On the procedure:
Human CD14 positive cell line THP-1 cells and U937 cells were suspended in RPMI1640/10% FBS culture medium to 1-3×10^6 cells/ml, and seeded in a 24-well culture plate (Falcon) at a cell density of 1 mL/well. Simultaneously, RK-163 (bulk powder was dissolved in PBS added with DMSO and 0.5% Tween 20) was added to a final concentration 100 ng/mL, […] to give “RK-163-pulsed human CD14 positive cell line”.
iPS-CD14 positive cells were cultured for 8-48 hr in the presence of RK-163 in the same manner as for THP-1 and U937 to give “RK-163-pulsed human iPS-CD14 positive cell line”.
[…] After culturing, the recovered cells were washed twice by centrifugation, and the number of viable cells after Trypan Blue staining was calculated by TC20™ Automated Cell Counter. RK-163-pulsed cells and human NKT cell line were respectively suspended in 10% fetal bovine serum (Sigma, Lot No. 114K525)-added RMPI-1640 (Invitrogen) to 1×10^6/mL, each cell suspension was seeded at a cell concentration of 1×10^5/0.1 mL/well in a 96-well round-bottomed culture plate, and the cells were cultured at 37° C., 5% CO2 for 48 hr. After culturing, 200 μL of supernatant was recovered, and the produced and secreted IFN-γ was measured using a commercially available ELISA kit (BD Biosciences). […]

Regarding `CCCCCCCCCCCCCCCCCCCCCCCCCC(=O)N[C@@H](CO[C@H]1O[C@H](COC(=O)NO)[C@H](O)[C@H](O)[C@H]1O)[C@H](O)[C@H](O)CCCCCCCCCCCCCC` [RCAI-137], in the series with human NKT cell line [1], the “IFN-γ production from NKT cells induced by ligand-pulsed CD14 positive cells” value is recorded as “strongly induce”.
With `CCCCCCCCCCCCCCCCCCCCCCCCCC(=O)N[C@@H](CO[C@H]1O[C@H](COC(=O)NC)[C@H](O)[C@H](O)[C@H]1O)[C@H](O)[C@H](O)CCCCCCCCCCCCCC` [RK-163], the “cytotoxic activity induced on human NKT cells as compared to α-GalCer” value in series [2] is recorded as “stronger”. For the same compound, the “pulse time with high IFN-γ production inducing activity” value in the series with human NKT cell line [1] (CD14 positive cells, GM-CSF 53.3 ng/mL) was in the range of 48 to 72 h. Also, the “pulse time from which IFN-γ production inducing activity was found” value in the series on human NKT cell line [1] (CD14 positive cells, GM-CSF 53.3 ng/mL, times 0, 16, 48, 64, 72 hr) is ≥ 16 h; in the series with human NKT cell line [3], ≥ 2 h.
Turning to `CCCCCCCCCCCCCCCCCCCCCCCCCC(=O)N[C@@H](CO[C@H]1O[C@H](COCC)[C@H](O)[C@H](O)[C@H]1O)[C@H](O)[C@H](O)CCCCCCCCCCCCCC` [RCAI-85], the “IFN-γ production from NKT cells induced by ligand-pulsed CD14 positive cells” value in the series with human NKT cell line [1] was “strongly induce”.

The record behind these values is patent US11744860B2, “Technology for efficient activation of NKT cells” (RIKEN, priority 2016, dated 2023).
